# Like-named read-outs stand apart in the source and are kept apart here.
# Experiments:
# [1] = target: T1, wild-type human cardiac sodium channel, hNav1.5 (Homo sapiens, UniProt Q14524); assay: Late INa screening assay (PatchXpress whole cell patch clamp, late current generated with Tefluthrin or ATX II); assay type: cell-based; conditions: test compound at 10 μM
# Method: (§1) The late sodium current (Late INa) and peak sodium current (Peak INa) assays are performed on an automated electrophysiology platform, PatchXpress 7000A (MDS Analytical Technologies, Sunnyvale, Calif.), which uses the whole cell patch clump technique to measure currents through the cell membrane of up to 16 cells at a time. The assay uses an HEK293 (human embryonic kidney) cell line heterologously expressing the wild-type human cardiac sodium channel, hNav1.5, purchased from Millipore (Billerica, Mass.). No beta subunits were coexpressed with the Na channel alpha subunit. […] Experiments are carried out at 24-27° C.
# (§2) For both the Late INa and Peak INa assays, series resistance compensation is set to 50% and whole-cell compensation is performed automatically. […] Currents through open sodium channels are automatically recorded and stored in the DataXpress2 database (MDS Analytical Technologies, Sunnyvale, Calif.). Analysis is performed using DataXpress2 analysis software and data are compiled in Excel.
# Compound stocks are routinely made in glass vials to 10 mM in dimethyl sulfoxide (DMSO). In some cases, when compounds are not soluble in DMSO, they are made in 100% ethanol. Stocks are sonicated as necessary. The extracellular solution for screening Late INa is composed of: 140 mM NaCl, 4 mM KCl, 1.8 mM CaCl2, 0.75 mM MgCl2, and 5 mM HEPES with pH adjusted to 7.4 using NaOH. The extracellular solution for screening Peak INa is composed of: 20 mM NaCl, 120 mM N-methyl-D glucamine, 4 mM KCl, 1.8 mM CaCl2, 0.75 mM MgCl2, and 5 mM HEPES with pH adjusted to 7.4 using HCl. The intracellular solution used to perfuse the inside of the cells for both the Late INa and Peak INa assays contains: 120 mM CsF, […], 5 mM EGTA, 5 mM HEPES and pH adjusted to 7.4 with CsOH. […] The ONa extracellular solution used at the end of each experiment for the Late INa and Peak INa assays to measure baseline current contains: 140 mM N-methyl-D-glucamine; 4 mM KCl; 1.8 mM CaCl2; 0.75 mM MgCl2; 5 mM HEPES and pH was adjusted to 7.4 with HCl.
# For the Late INa assay, sodium channels are activated every 10 seconds (0.1 Hz) by depolarizing the cell membrane to −20 mV for 250 milliseconds (ms) from a holding potential of −120 mV.
# All compounds are tested to determine their activity in blocking the late sodium current. Late INa current is generated by adding 10 μM Tefluthrin (pyrethroid) to the extracellular solution while recording Na currents. […] For some experiments, 50 nM ATX II (sea anemone toxin), another late INa activator, was used to generate the late component. […] Baseline current in the absence of Na^+ ions is measured at the end of each experiment (after two additions of 0 Na solution—see above) and is used to calculate the percent block by compound.
# [2] = target: T1, wild-type human cardiac sodium channel, hNav1.5; assay: Peak INa screening assay (tonic block and use-dependent block); assay type: cell-based; conditions: test compound at 10 μM
# Method: as §1, §2
# Compound stocks are routinely made in glass vials to 10 mM in dimethyl sulfoxide (DMSO). In some cases, when compounds are not soluble in DMSO, they are made in 100% ethanol. Stocks are sonicated as necessary. The extracellular solution for screening Late INa is composed of: 140 mM NaCl, 4 mM KCl, 1.8 mM CaCl2, 0.75 mM MgCl2, and 5 mM HEPES with pH adjusted to 7.4 using NaOH. The extracellular solution for screening Peak INa is composed of: 20 mM NaCl, 120 mM N-methyl-D glucamine, 4 mM KCl, 1.8 mM CaCl2, 0.75 mM MgCl2, and 5 mM HEPES with pH adjusted to 7.4 using HCl. The intracellular solution used to perfuse the inside of the cells for both the Late INa and Peak INa assays contains: 120 mM CsF, […], 5 mM EGTA, 5 mM HEPES and pH adjusted to 7.4 with CsOH. Compounds are diluted in extracellular solution to […] in glass vials and then transferred to glass well plates before robotic addition to the cells. The ONa extracellular solution used at the end of each experiment for the Late INa and Peak INa assays to measure baseline current contains: 140 mM N-methyl-D-glucamine; 4 mM KCl; 1.8 mM CaCl2; 0.75 mM MgCl2; 5 mM HEPES and pH was adjusted to 7.4 with HCl.
# Compounds were also evaluated for their effect in several other assays, including their effect on Peak INa. In some cases, the effect on Peak INa was measured using data from the Late INa assay. […] Since the peak INa can be very large, introducing artifacts in the recording, the concentration of Na^+ in the bath is reduced to 20 mM and a nonpermeant cation is added to compensate for the Na^+ that was omitted from the standard extracellular solution (see above). The peak INa assay uses a holding potential of −100 mV and a 20 ms test pulse to 0 mV to activate the channel. As in the Late INa assay, stepping the voltage to 0 mV causes a rapid increase in negative Na current through hNav1.5 that inactivates within a few ms. No late INa activator is added for the peak assay.
# For the separate peak INa assay, both tonic (TB) block and use-dependent (UDB) block of peak inward sodium current by 10 μM compound are determined. TB is block of the channel in the resting state, before the channel opens. TB is simulated in this assay by stimulating the channel to open at a low frequency (0.1 Hz). This is done in order to measure the control current amplitude and monitor current rundown, enabling correction for rundown in the calculation of percent block for TB.
# L-type calcium channel = L-type calcium channel activity well-plate assay (IMR-32 cells, Ca-4 dye, FlexStation); assay type: cell-based, human
# Summary of the method: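 IMR-32 human neuroblastoma cells seeded overnight at 200,000 cells/well, loaded 1 h at 37° with Ca-4 dye in HBSS/20 mM HEPES pH 7.4 with 2 mM probenecid.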
# hERG potassium channel = hERG potassium channel (Homo sapiens, UniProt Q12809); assay: hERG screening assay (PatchXpress patch clamp, CHO cells)
# [3] = target: T2, human cardiac L-type calcium channels (hCav1.2, coexpressed with the beta 2 subunit) (Homo sapiens, UniProt Q13936); assay: L-type calcium channel patch clamp screening assay (ICaL, HEK293); assay type: cell-based; conditions: hCav1.2 in HEK293, percentage of current inhibited at steady state; for ICaL Patch Clamp Assay 1 μM % blk: 1 μM test compound; for ICaL Patch Clamp Assay 10 μM % blk: 10 μM test compound
# T2 construct: expressed in transfected cells
# T2 sequence (Q13936 whole entry): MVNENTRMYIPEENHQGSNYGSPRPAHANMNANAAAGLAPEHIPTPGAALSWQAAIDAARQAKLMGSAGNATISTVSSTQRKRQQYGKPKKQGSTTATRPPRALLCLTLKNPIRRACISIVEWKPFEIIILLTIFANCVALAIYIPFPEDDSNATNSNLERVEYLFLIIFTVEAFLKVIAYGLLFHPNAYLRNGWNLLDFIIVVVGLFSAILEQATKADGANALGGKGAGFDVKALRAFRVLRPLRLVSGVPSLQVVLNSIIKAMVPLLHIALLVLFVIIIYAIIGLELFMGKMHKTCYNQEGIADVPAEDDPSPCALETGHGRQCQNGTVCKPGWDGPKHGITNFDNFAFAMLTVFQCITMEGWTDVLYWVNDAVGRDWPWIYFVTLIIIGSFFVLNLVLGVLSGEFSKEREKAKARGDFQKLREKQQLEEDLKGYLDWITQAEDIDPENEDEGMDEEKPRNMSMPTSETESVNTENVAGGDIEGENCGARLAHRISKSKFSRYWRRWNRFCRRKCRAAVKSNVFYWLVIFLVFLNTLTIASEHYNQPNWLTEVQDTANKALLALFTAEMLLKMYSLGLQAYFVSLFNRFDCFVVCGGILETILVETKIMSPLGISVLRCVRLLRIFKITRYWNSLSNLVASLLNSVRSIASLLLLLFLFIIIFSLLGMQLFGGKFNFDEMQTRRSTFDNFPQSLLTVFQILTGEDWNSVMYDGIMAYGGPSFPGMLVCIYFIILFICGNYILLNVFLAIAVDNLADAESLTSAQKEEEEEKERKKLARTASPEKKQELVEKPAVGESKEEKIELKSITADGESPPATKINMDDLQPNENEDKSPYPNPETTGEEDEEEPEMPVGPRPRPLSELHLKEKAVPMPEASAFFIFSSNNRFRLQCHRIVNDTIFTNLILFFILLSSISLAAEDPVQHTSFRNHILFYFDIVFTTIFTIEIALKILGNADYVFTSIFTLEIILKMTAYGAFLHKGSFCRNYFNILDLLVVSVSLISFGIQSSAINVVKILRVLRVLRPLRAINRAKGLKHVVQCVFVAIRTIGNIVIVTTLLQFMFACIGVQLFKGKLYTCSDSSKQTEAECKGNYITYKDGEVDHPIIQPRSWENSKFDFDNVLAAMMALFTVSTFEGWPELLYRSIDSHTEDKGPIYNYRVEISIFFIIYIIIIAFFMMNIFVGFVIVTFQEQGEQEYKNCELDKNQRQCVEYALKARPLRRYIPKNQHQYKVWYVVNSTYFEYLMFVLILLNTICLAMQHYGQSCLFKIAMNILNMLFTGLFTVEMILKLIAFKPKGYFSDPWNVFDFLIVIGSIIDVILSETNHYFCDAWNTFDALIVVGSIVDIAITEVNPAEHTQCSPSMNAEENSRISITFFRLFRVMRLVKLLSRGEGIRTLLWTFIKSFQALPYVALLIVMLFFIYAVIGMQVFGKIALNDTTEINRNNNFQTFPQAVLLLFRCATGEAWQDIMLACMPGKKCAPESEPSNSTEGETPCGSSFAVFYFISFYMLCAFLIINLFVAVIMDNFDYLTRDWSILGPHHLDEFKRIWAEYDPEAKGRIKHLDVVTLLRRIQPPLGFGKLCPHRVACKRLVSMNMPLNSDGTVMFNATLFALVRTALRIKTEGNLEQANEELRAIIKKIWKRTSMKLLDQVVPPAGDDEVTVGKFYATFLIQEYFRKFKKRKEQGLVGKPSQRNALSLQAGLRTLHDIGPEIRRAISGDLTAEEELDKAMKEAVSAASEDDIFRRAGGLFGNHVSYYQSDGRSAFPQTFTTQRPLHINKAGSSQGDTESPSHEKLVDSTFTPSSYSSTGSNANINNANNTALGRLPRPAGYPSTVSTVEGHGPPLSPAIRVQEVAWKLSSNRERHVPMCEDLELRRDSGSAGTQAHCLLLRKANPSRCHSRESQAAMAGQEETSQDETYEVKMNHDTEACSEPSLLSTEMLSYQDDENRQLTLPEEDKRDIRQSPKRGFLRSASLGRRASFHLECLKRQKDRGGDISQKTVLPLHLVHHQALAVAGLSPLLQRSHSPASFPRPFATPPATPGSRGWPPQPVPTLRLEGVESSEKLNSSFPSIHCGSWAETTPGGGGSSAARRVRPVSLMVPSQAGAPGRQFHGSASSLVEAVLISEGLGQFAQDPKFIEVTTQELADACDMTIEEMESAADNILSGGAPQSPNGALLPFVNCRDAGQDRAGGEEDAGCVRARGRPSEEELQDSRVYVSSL
# T2 sequence (Q08289 whole entry partner): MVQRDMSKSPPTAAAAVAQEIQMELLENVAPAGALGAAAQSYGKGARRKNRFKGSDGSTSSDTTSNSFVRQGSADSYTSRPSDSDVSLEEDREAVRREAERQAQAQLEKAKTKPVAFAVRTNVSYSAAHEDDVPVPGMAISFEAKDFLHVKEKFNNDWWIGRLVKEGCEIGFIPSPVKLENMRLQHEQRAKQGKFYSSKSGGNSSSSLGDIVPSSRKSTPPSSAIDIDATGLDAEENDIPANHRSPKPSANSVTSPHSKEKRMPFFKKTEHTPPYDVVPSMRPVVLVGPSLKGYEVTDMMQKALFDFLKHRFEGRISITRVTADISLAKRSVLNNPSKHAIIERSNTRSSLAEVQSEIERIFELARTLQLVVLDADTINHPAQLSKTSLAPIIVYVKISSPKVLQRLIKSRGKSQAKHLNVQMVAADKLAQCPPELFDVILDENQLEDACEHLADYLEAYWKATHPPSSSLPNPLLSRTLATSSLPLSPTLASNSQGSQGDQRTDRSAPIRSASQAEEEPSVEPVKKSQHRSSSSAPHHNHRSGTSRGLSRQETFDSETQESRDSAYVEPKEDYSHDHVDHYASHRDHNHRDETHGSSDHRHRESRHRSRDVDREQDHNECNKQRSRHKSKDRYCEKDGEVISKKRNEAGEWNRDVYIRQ
# Method: Compounds are screened to test for block of human cardiac L-type calcium channels (hCav1.2, encoded by the human CACNA1C gene and coexpressed with the beta 2 subunit, encoded by the human CACNB2 gene) expressed in an HEK293 cell line. Stable transfectants were selected using antibiotic resistance genes incorporated into the expression plasmids and selection pressure is maintained with selection antibiotics added to the culture medium. Cells are cultured using standard tissue culture methods for HEK293 cells.
# Cells are harvested for addition to a PatchXpress automated patch clamp system. The external solution contains: 137 mM NaCl; 4 mM KCl; 1.8 mM CaCl2; 1 mM MgCl2; […]; 10 mM Glucose (pH adjusted to 7.4 with NaOH). The internal solution contains: 130 mM Cs Aspartate; 5 mM MgCl2; 5 mM EGTA; 4 mM ATP; 0.1 mM GTP; 10 mM HEPES (pH adjusted to 7.2 with N-methyl-D-glucamine).
# Onset of block and steady state block of hCav1.2 channels are monitored using a stimulus voltage pattern consisting of a depolarizing test pulse (duration, 200 ms; amplitude, 10 mV) at 10s intervals from a −80 mV holding potential (FIG. 5). Test compound concentrations (1 μM and 10 μM) are applied cumulatively in ascending order without washout between applications. Peak current is measured during the step to 10 mV. A saturating concentration of nifedipine (10 μM) is added at the end of each experiment to completely block hCav1.2 current and verify sensitivity to channel blockade. Leakage current is measured after nifedipine addition and digitally subtracted from the total membrane current record. Each compound is applied to naive cells and each concentration is applied four times for a total exposure duration of five (5) minutes per concentration.
# Test compound stock solutions are prepared in dimethyl sulfoxide (DMSO) and stored frozen. Test compound concentrations are prepared fresh daily by diluting stock solutions into the external HEPES-buffered physiological saline solution described above. […] Each test compound formulation is sonicated (Model 2510/5510, Branson Ultrasonics, Danbury, Conn.), at ambient room temperature for at least 20 minutes to facilitate dissolution. In preparation for the recording session, a glass-lined 96-well compound plate is loaded with the appropriate amounts of test and control solutions, and placed in the plate well of PatchXpress® (Model 7000A, MDS Analytical Technologies, Sunnyvale, Calif.).
# Data acquisition and analyses are performed using conventional software. Steady state is defined by the limiting constant rate of change with time (linear time dependence). The steady state before and after test compound application is used to calculate the percentage of current inhibited at each concentration.
# [4] = tonic block, read-out: Tonic Peak INa % blk
# [5] = use-dependent block, read-out: UDB Peak INa % blk
# T1 sequence (Q14524 whole entry): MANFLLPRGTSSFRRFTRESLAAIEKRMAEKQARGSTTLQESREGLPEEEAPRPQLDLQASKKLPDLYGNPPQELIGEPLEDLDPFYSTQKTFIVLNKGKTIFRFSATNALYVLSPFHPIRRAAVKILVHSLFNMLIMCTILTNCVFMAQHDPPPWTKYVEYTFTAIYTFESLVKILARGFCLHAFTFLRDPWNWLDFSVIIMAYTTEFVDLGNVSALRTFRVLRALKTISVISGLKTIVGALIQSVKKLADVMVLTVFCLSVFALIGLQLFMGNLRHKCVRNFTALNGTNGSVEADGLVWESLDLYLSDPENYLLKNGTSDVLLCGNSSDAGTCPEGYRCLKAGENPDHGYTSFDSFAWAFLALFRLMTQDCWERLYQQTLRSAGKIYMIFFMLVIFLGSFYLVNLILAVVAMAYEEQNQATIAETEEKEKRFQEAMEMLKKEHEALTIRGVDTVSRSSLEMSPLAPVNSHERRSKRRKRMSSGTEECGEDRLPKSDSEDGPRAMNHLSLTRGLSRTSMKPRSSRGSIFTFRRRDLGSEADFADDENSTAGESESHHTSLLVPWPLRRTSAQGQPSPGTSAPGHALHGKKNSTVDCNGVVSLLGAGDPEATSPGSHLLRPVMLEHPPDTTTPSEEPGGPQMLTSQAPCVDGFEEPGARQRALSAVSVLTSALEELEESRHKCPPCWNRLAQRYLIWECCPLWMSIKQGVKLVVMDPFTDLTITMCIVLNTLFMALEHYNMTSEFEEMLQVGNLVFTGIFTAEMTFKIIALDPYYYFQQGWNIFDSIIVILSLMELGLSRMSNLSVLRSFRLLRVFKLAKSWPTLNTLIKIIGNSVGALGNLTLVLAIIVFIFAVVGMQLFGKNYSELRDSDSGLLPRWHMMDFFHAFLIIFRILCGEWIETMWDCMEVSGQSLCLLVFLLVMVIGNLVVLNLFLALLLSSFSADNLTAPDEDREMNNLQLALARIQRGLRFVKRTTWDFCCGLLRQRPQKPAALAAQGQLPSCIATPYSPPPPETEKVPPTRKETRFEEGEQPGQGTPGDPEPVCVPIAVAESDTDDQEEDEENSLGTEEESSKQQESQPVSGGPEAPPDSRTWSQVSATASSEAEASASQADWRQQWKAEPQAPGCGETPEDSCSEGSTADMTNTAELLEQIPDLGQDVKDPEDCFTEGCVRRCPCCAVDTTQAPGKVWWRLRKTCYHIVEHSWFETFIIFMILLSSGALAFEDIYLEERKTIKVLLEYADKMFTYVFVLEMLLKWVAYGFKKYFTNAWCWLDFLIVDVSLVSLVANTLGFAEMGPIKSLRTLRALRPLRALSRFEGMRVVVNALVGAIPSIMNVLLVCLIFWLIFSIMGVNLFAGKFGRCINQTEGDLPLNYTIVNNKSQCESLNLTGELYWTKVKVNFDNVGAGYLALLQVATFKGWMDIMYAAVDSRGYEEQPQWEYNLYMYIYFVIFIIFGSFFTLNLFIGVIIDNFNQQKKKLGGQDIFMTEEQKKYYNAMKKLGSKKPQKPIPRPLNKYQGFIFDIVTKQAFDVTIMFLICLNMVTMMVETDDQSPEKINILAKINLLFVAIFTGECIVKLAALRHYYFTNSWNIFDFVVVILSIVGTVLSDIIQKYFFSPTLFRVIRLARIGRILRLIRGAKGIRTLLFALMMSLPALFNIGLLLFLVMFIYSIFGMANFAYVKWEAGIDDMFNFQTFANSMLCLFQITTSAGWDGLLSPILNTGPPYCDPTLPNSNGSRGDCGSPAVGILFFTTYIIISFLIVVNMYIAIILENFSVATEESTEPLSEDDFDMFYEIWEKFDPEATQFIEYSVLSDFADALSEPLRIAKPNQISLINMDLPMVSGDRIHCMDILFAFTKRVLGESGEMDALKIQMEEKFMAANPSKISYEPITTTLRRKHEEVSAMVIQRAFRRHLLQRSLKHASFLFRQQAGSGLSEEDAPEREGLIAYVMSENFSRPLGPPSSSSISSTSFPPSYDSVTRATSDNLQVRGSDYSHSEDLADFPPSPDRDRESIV
smiles,measurement,setting,value
CC1=C(C(=O)O[C@H](C)c2ccccc2)C(c2cccc3ccccc23)n2nnnc2N1 (some centres unmarked) [PT-047],Late INa % blk,[1],67.4%
same,Tonic Peak INa % blk,[2]; tonic block,36.3%
same,CaL Plate Assay % blk (1 μM test cmpd),L-type calcium channel; 1 μM test cmpd,24%
same,CaL Plate Assay % blk (10 μM test cmpd),L-type calcium channel; 10 μM test cmpd,42%
"CC1=C(C(=O)OCc2ccccc2)[C@@H](c2ccccc2-c2ccc(C)o2)n2nnnc2N1 [PT-235, (R)-benzyl 5-methyl-7-(2-(5-methylfuran-2-yl)phenyl)-4,7-dihydrotetrazolo[1,5-a]pyrimidine-6-carboxylate]",inhibition at 10 µM,[2]; [4],8.8%
same,inhibition at 10 µM,[2]; [5],4.5%
same,hERG Patch Clamp hERG % blk (1 μM test cmpd),hERG potassium channel,10%
same,hERG Patch Clamp hERG % blk (10 μM test cmpd),hERG potassium channel,41.5%
"CC1=C(C(=O)OCc2ccccc2)C(c2cccc3ccccc23)n2nnnc2N1Cc1nnn[nH]1 (centres unmarked) [PT-326, benzyl 4-((1H-tetrazol-5-yl)methyl)-5-methyl-7-(naphthalen-1-yl)-4,7-dihydrotetrazolo[1,5-a]pyrimidine-6-carboxylate]",inhibition at 10 µM,[2]; [4],32.2%
same,inhibition at 10 µM,[2]; [5],11.6%
"CC1=C(C(=O)OCc2ccccc2)C(c2ccccc2-c2ccc(NS(C)(=O)=O)cc2)c2cn[nH]c2N1 (centres unmarked) [PT-366, benzyl 6-methyl-4-(4′-(methylsulfonamido)biphenyl-2-yl)-4,7-dihydro-1H-pyrazolo[3,4-b]pyridine-5-carboxylate]",inhibition at 10 µM,[2]; [4],20%
same,inhibition at 10 µM,[2]; [5],4.6%
same,hERG Patch Clamp hERG % blk (1 μM test cmpd),hERG potassium channel,28%
same,hERG Patch Clamp hERG % blk (10 μM test cmpd),hERG potassium channel,92%
"COc1ccc(C2C(C(=O)OCc3ccccc3)=C(C)Nc3nnnn32)c(C#N)c1 (centres unmarked) [PT-389, benzyl 7-(2-cyano-4-methoxyphenyl)-5-methyl-4,7-dihydrotetrazolo[1,5-a]pyrimidine-6-carboxylate]",inhibition at 10 µM,[2]; [4],13.9%
same,inhibition at 10 µM,[2]; [5],2.9%
same,hERG Patch Clamp hERG % blk (1 μM test cmpd),hERG potassium channel,23.5%
same,hERG Patch Clamp hERG % blk (10 μM test cmpd),hERG potassium channel,69%
"CC1=C(C(=O)OCc2ccccc2)C(c2sccc2Br)n2nnnc2N1 (centres unmarked) [PT-401, benzyl 7-(3-bromothiophen-2-yl)-5-methyl-4,7-dihydrotetrazolo[1,5-a]pyrimidine-6-carboxylate]",inhibition at 10 µM,[2]; [4],34.6%
same,inhibition at 10 µM,[2]; [5],4.8%
"CCOC(=O)C1=C(C)NC(C)=C(C(=O)OCC)C1c1ccc(OC)cc1C#N [PT-431, diethyl 4-(2-cyano-4-methoxyphenyl)-2,6-dimethyl-1,4-dihydropyridine-3,5-dicarboxylate]",ICaL Patch Clamp Assay 1 μM % blk,[3],3.7%
same,ICaL Patch Clamp Assay 10 μM % blk,[3],2.4%
"CCOC(=O)C1=C(C)NC(C)=C(C(=O)OCC)C1c1ccc(OC)cc1F [PT-432, diethyl 4-(2-fluoro-4-methoxyphenyl)-2,6-dimethyl-1,4-dihydropyridine-3,5-dicarboxylate]",ICaL Patch Clamp Assay 1 μM % blk,[3],3.7%
same,ICaL Patch Clamp Assay 10 μM % blk,[3],35.3%
"CCOC(=O)C1=C(C)NC(C)=C(C(=O)OCC)C1c1ccc(N(C)C)cc1[N+](=O)[O-] [PT-437, diethyl 4-(4-(dimethylamino)-2-nitrophenyl)-2,6-dimethyl-1,4-dihydropyridine-3,5-dicarboxylate]",ICaL Patch Clamp Assay 1 μM % blk,[3],−0.1%
same,ICaL Patch Clamp Assay 10 μM % blk,[3],13.2%
"CCOC(=O)C1=C(C)Nc2c(c(C)nn2C)C1c1cccc2ccccc12 (centres unmarked) [PT-440, ethyl 1,3,6-trimethyl-4-(naphthalen-1-yl)-4,7-dihydro-1H-pyrazolo[3,4-b]pyridine-5-carboxylate]",inhibition at 10 µM,[2]; [4],2.8%
same,inhibition at 10 µM,[2]; [5],4.3%
same,hERG Patch Clamp hERG % blk (1 μM test cmpd),hERG potassium channel,12%
same,hERG Patch Clamp hERG % blk (10 μM test cmpd),hERG potassium channel,48%
"CCOC(=O)C1=C(C)Nc2nnnn2C1c1ccccc1I (centres unmarked) [PT-492, ethyl 7-(2-iodophenyl)-5-methyl-4,7-dihydrotetrazolo[1,5-a]pyrimidine-6-carboxylate]",inhibition at 10 µM,[2]; [4],20.6%
same,inhibition at 10 µM,[2]; [5],4.8%
CC1=C(C(=O)O[C@@H](C)c2ccccc2)C(c2sc3ccccc3c2C)c2cn[nH]c2N1 (some centres unmarked) [PT-523],Late INa % blk,[1],66.7%
same,Tonic Peak INa % blk,[2]; tonic block,20.8%
same,UDB Peak INa % blk,[2]; use-dependent block,16.2%

# — US20090181986A1, “SUBSTITUTED HETEROCYCLIC COMPOUNDS” (priority 2007, published 2009)
